Data taken from PMC10460880, “Cathepsin K‐Activated Probe for Fluoro‐Photoacoustic Imaging of Early Osteolytic Metastasis” (Advanced Science, 2023).

What was measured:
OCs = experiment: Cell selectivity experiment, osteoclasts; format: cell-based; settings: n = 3
[1] = test system: CTSK-overexpressing OCs on calf bone slice; experiment: In vitro bone resorption imaging assay; format: cell-based, C57BL/6J mice; settings: 2-CP 50 mM, 37 °C, 30 min, then CTSK-APPA 5 μM, 2 h
Description: PS. RAW 264.7 cells and BMMs were maintained in an atmosphere of 5% CO2 and 95% humidified air at 37 °C. The medium was changed every day.
Cell cytotoxicity assay. MDA-MB-231/Luc and RAW 264.7 cells were seeded in 96-well plates (5×10^3 cells per well) for 24 h and then incubated with CTSK-APPA or CTSK-APP (5, 10, 20, 50 μM) or saline for 24 h. The medium was removed and cells were incubated with CCK-8 (0.5 mg/mL) for another 1 h. The absorbance of the mixture at 450 nm was measured by using a microplate reader. Cell viability was expressed by the ratio of the absorbance of the cells incubated with the probes to that of the cells incubated with culture medium only.
In vitro osteoclast differentiation. Bone marrow-derived macrophages were isolated from the femurs and tibias of 4-week-old C57BL/6J mice and cultured in a complete medium containing M-CSF (30 ng/mL) for 4 days. BMMs were harvested to the 24-well plates (1×10^4 per well) and cultured in the complete medium containing M-CSF (30 ng/mL) and RANKL (100 ng/mL) for another 4 days. The osteoclasts were fixed and stained by using acid phosphatase and a leukocyte kit according to the manufacturer’s procedures.
In vitro bone resorption imaging assay. […]
Fluorescence images were captured by using the IVIS Spectrum imaging system with excitation […]

[2] = test system: MDA-MB-231/Luc-induced osteolytic metastasis; experiment: Real-time NIR fluorescence and PA imaging of osteolytic metastasis; format: in vivo, BALB/c nude mice; settings: 2-CP 50 mM, 200 μL, 1 h before probe; n = 3
Description: page 5: PS. RAW 264.7 cells and BMMs were maintained in an atmosphere of 5% CO2 and 95% humidified air at 37 °C. The medium was changed every day. Cell cytotoxicity assay. MDA-MB-231/Luc and RAW 264.7 cells were seeded in 96-well plates (5×10^3 cells per well) for 24 h and then incubated with CTSK-APPA or CTSK-APP (5, 10, 20, 50 μM) or saline for 24 h. The medium was removed and cells were incubated with CCK-8 (0.5 mg/mL) for another 1 h. The absorbance of the mixture at 450 nm was measured by using a microplate reader. Cell viability was expressed by the ratio of the absorbance of the cells incubated with the probes to that of the cells incubated with culture medium only. In vitro osteoclast differentiation. Bone marrow-derived macrophages were isolated from the femurs and tibias of 4-week-old C57BL/6J mice and cultured in a complete medium containing M-CSF (30 ng/mL) for 4 days. […] Fluorescence images were captured by using the IVIS Spectrum imaging system with excitation at 660 ± 10 nm and emission at 710 ± 10 nm. […] The bone marrow toxicity of CTSK-APPA and CTSK-APP was assessed by blood analyses in mice. […] The red blood count (RBC) and white blood count (WBC) were further measured. […] The supernatants containing excreted probes were quantified by using a UV-vis absorption spectrometer. […]

## N#Cc1ncccn1 [Probe 2-CP, 2-Cyanopyrimidine, reference compound]
OCs
  effect of inhibitor on CTSK-APPA fluorescence in OCs: effectively reduced
[1]
  effect of inhibitor pre-treatment on CTSK-APPA fluorescence of bone-resorption slice: remarkably suppressed NIR fluorescence
[2]
  effect of preinjected inhibitor on NIR fluorescence and PA signals of CTSK-APPA: reduced to the CTSK‐APP levels
